Data taken from patent US11286281B2, “Homodetic cyclic peptides targeting alpha-4-beta-7 integrin” (priority 2017, dated 2022).
“And” between values parts separate entries of the source, which are not always exact repeats. Identical values can stand only once. Numbered stars: 1 amine (or outer) side, 2 acyl side, 3 side chain; on linkers, the order of the positions; unused ones are H or OH. Square brackets hold non-standard residues; d marks the D form. Peptide text beside a SMILES is read from it. X1 = O=C(c1ccc(-c2ccc(N3CCNCC3)cc2)c(CN[*:1])c1)[*:2]

Tests used:
integrin α4β7 [1] = biological target: T1, integrin α4β7 (Homo sapiens, UniProt P13612+P26010); experiment: Integrin α4β7-MAdCAM human cell adhesion assay (RPMI8866 cells); format: cell-based; design: host or cells: RPMI8866 human cells; details: for IC50: adhesion of RPMI8866 cells to MAdCAM-1 coated plates
T1 sequence (P13612 34-1032): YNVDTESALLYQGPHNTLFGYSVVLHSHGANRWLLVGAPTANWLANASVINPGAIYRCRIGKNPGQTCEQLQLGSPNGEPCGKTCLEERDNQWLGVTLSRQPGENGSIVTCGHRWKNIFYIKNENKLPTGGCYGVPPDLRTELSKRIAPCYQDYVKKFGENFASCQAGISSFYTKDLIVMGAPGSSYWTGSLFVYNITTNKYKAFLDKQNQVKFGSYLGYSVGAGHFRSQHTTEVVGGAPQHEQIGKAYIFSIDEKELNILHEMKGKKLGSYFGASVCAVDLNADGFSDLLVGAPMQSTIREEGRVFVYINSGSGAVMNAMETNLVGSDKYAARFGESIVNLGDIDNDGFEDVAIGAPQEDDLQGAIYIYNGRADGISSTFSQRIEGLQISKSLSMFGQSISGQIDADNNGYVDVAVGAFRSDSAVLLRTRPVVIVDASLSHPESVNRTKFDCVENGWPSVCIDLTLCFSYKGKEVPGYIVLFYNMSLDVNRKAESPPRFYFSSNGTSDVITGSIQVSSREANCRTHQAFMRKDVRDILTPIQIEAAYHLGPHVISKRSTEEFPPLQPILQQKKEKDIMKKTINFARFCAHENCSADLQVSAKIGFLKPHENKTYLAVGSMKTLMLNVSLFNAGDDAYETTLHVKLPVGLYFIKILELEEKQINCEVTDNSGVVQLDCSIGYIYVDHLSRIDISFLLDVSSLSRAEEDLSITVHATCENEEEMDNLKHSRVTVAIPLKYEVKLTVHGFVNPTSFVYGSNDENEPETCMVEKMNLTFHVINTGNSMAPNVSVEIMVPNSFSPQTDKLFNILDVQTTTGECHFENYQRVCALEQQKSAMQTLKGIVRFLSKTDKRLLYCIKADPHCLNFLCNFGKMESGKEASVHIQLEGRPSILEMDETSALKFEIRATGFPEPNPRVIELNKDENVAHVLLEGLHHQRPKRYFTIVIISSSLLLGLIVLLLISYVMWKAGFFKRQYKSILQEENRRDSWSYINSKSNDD
T1 sequence (P26010 20-798): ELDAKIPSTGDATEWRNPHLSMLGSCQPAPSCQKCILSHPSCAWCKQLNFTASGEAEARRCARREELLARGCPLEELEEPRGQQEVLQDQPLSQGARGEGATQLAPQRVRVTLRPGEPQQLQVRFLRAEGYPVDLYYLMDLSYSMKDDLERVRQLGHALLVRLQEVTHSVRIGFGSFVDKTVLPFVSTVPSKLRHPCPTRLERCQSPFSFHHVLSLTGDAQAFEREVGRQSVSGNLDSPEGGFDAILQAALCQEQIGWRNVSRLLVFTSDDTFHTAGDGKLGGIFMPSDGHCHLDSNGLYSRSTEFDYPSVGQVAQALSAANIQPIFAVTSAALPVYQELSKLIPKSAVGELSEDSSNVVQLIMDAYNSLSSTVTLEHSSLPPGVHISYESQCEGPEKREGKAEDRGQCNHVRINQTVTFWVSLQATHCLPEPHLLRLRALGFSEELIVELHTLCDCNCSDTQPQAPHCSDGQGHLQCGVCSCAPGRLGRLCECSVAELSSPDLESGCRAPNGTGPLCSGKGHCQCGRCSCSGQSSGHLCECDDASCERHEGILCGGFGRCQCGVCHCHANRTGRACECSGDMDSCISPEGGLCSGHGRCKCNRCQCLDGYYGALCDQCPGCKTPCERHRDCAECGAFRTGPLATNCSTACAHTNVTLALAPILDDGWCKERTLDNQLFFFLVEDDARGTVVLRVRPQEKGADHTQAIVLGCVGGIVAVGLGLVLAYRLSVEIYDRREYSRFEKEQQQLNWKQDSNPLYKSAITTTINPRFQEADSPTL
Procedure: RPM18866 human cells (Sigma #95041316) were cultured in RPMI 1640 medium (HyClone SH30027.1) supplemented with 10% FBS (Seradigm) and 1% Penicillin-Streptomycin. […] RPM18866 cells were resuspended at 10 million cells/ml in PBS containing […] and incubated at 37° C. for 30 min in a 50 ml tube. […] The plate was emptied by inverting and blotting on paper towels and washed manually twice with PBS. 100 μl PBS was then added to each well. The fluorescence was read (Ex495/Em515) using a plate reader (Tecan Infinite 1000). To calculate the dose response, the fluorescence value of control wells not containing cells was subtracted from each test well.

integrin α4β7 [2] = biological target: T1, integrin α4β7; experiment: Whole blood ligand displacement (receptor occupancy): biotinylated rhMAdCAM-1 binding to α4β7+ Th memory cells; format: cell-based; details: for selectivity of RO versus α4β1 (fold difference in IC50 between assays): whole blood, α4β7 versus α4β1
Procedure: Receptor occupancy (RO) in primary cells was determined by measuring the amount of biotinylated human recombinant MAdCAM-1-FC or human recombinant VCAM-1-Fc bound to selected cell populations using flow cytometry. Human recombinant MAdCAM-1-FC or human recombinant VCAM-1-FC (R&D systems) were biotinylated using commercially available reagents and protocol (Pierce). Whole blood was collected from human donors in sodium heparin tubes. […] Cells were washed twice with 1 mL of 1×DPBS calcium magnesium free(CMF) (ThermoFisher Scientific) and resuspended in 100 μL of DPBS CMF. […] Cells were washed with 1 mL stain buffer-FBS (BD Biosciences) and resuspended in 100 μl stain Buffer-FBS (BD Biosciences) containing 4 mM MnCl2. […] Cells were then washed with 1 mL stain buffer-FBS and resuspended in 100 μl stain buffer-FBS. The cells were incubated in the dark for 30 minutes at room temperature with 1 μl Streptavidin APC (Biolegend 0.2 mg/ml) and a panel of antibodies for the detection of memory T helper a4b7-positive cells subset. And amount of 5.0 μl each of the following antibodies were used; CD45 FITC (BioLegend 200 μg/ml), CD29 APC Cy7 (BioLegend 100 μg/ml), Integrin beta7 PE, (BioLegend concentration 50 μg/mL), CD49d […] (BioLegend 50 μg/mL), CD3 […] (BioLegend 30 μg/mL), CD4 PECy7 (BioLegend 100 μg/mL), CD45RO PerCP, BioLegend 200 μg/mL). The cells were then washed with stain-buffer-FBS and resuspended in 150 μL stain buffer-FBS for acquisition on the flow cytometer (BD FACSCantoTM flow cytometer and […] software). FACS data was acquire by electronic gating on the basis of forward versus side scatter, The cytometer was set to collect 20,000 events in each tube. Cell population were determined using the following markers, CD45+, CD3+, CD4+, CD45RO+, CD49d+, integrin β7, biotinylated ligands.

[3] = α4β7 Th memory cells, human whole blood, read-out: MAdCAM-1 Competition IC50 (receptor occupancy)

## CC(C)C[C@@H]1NC(=O)c2ccc(-c3ccc(N4CCN(C(=O)COCC(=O)N5CCN(c6ccc(-c7ccc8cc7CNC(=O)[C@@H]7CCCN7C(=O)[C@H](C)NC(=O)[C@H]([C@@H](C)O)NC(=O)[C@H](CC(=O)O)NC(=O)[C@H](CC(C)C)NC8=O)cc6)CC5)CC4)cc3)c(c2)CNC(=O)[C@@H]2CCCN2C(=O)[C@H](C)NC(=O)[C@H]([C@@H](C)O)NC(=O)[C@H](CC(=O)O)NC1=O [Compound 17]
Integrin α4β7 [1]
  IC50: ~19 nM

## CC(C)C[C@@H]1NC(=O)c2ccc(-c3ccc(N4CCN(Cc5cccc(CN6CCN(c7ccc(-c8ccc9cc8CNC(=O)[C@@H]8CCCN8C(=O)[C@H](C)NC(=O)[C@H]([C@@H](C)O)NC(=O)[C@H](CC(=O)O)NC(=O)[C@H](CC(C)C)NC9=O)cc7)CC6)c5)CC4)cc3)c(c2)CNC(=O)[C@@H]2CCCN2C(=O)[C@H](C)NC(=O)[C@H]([C@@H](C)O)NC(=O)[C@H](CC(=O)O)NC1=O [Compound 18]
Integrin α4β7 [2]; human whole blood
  α4β7 RO IC50: sub-micromolar
Integrin α4β7 [2]
  selectivity of RO versus α4β1 (fold difference in IC50 between assays): selectivity versus α4β1
Integrin α4β7 [2]; [3]
  IC50: 25 nM and 24.7 nM
Integrin α4β7 [1]
  IC50: 8.4 nM

## CC(C)C[C@@H]1NC(=O)c2ccc(-c3ccc(N4CCNCC4)cc3)c(c2)CNC(=O)[C@@H]2CCCN2C(=O)[C@H](C)NC(=O)[C@H]([C@@H](C)O)NC(=O)[C@H](CC(=O)O)NC1=O [Compound 8] (cyclo(P[X1]LDTA))
Integrin α4β7 [2]; human whole blood
  competition with MAdCAM-1 on α4β7-positive primary cells, result in words: relatively weak concentration-response curve
Integrin α4β7 [2]; human whole blood, read-out: α4β7 RO IC50
  IC50: > 4000 nM
Integrin α4β7 [2]
  selectivity of RO versus α4β1 (fold difference in IC50 between assays): no selectivity
Integrin α4β7 [2]; [3]
  IC50: > 4000 nM
Integrin α4β7 [1]; RAMOS (α4β1) versus RPMI8866 (α4β7)
  fold difference in IC50 between RAMOS and RPMI8866 cell adhesion assays, in favor of integrin α4β7: 2.2 fold
Integrin α4β7 [1]
  IC50: ~202 nM and 202 nM
